In patent USRE48461E1, “Modulation of androgen receptor expression” (Ionis Pharmaceuticals, Inc., priority 2012, dated 2021):
Oligonucleotides are written 5' to 3', each unit as a sugar letter and its base; * is a phosphorothioate linkage, no mark a phosphodiester; rarer units and linkages stand in square brackets, end groups in braces. Plain capitals give the bases only. e = 2'-O-(2-methoxyethyl) (MOE); k = constrained ethyl (cEt); [5mC] = 5-methylcytosine; d = 2'-deoxy (DNA)

Legend:
AR mRNA [1] = test: Dose-dependent antisense inhibition of human AR in HuVEC cells (electroporation, qRT-PCR RTS3559, IC50); format: cell-based; details: HuVEC
Summary of the method: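 HuVEC cells dosed with antisense oligonucleotides by electroporation and treated approximately 16 hours. AR mRNA quantified by real-time qPCR with primer probe set RTS3559 and normalised to total RNA by RIBOGREEN; IC50 from dose-response.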

AR mRNA [2] = test: Antisense inhibition of human AR in HuVEC cells, single concentration (electroporation, qRT-PCR RTS3559); format: cell-based
Summary of the method: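 AR mRNA levels were measured with human primer-probe set RTS3559 and adjusted for total RNA (RIBOGREEN). Cells were HuVEC, with each antisense oligonucleotide delivered by electroporation at one concentration.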

[3] = Table 29, electroporation, approximately 16 hours
[4] = Table 32, electroporation, approximately 16 hours
[5] = Table 19, 500 nM oligonucleotide, electroporation, approximately 24 hours, relative to untreated control
[6] = Table 31, electroporation, approximately 16 hours
[7] = 500 nM ASO, electroporation, ~24 h, Table 1

583564 (antisense kG*k[5mC]*kT*dT*d[5mC]*d[5mC]*dT*d[5mC]*d[5mC]*dG*dA*dG*dT*k[5mC]*kT*kT) [compound 583564]
percent inhibition of AR, 46.9 nM (AR mRNA [1]; [3]): 16% | percent inhibition of AR, 187.5 nM (AR mRNA [1]; [3]): 33% | percent inhibition of AR, 750.0 nM (AR mRNA [1]; [3]): 55% | percent inhibition of AR, 3000.0 nM (AR mRNA [1]; [3]): 74% | IC50 (AR mRNA [1]; [3]): 520 nM | % inhibition (AR mRNA [2]; 500 nM ASO, ~24 h, Table 16): 45%

583850 (kG*kG*kA*d[5mC]*dG*d[5mC]*dA*d[5mC]*dA*dG*d[5mC]*dG*dG*kG*kT*kG; antisense) [compound 583850]
percent inhibition of AR, 46.9 nM (AR mRNA [1]; [4]): 9% | percent inhibition of AR, 187.5 nM (AR mRNA [1]; [4]): 21% | percent inhibition of AR, 750.0 nM (AR mRNA [1]; [4]): 54% | percent inhibition of AR, 3000.0 nM (AR mRNA [1]; [4]): 78% | IC50 (AR mRNA [1]; [4]): 600 nM | % inhibition (AR mRNA [2]; Table 20, 500 nM oligonucleotide, electroporation, approximately 24 hours, relative to untreated control): 38%

583759 (antisense kG*k[5mC]*kT*dG*dT*dT*d[5mC]*d[5mC]*dT*d[5mC]*dA*dT*d[5mC]*k[5mC]*kA*kG) [compound 583759]
percent inhibition of AR, 46.9 nM (AR mRNA [1]; [4]): 5% | percent inhibition of AR, 187.5 nM (AR mRNA [1]; [4]): 28% | percent inhibition of AR, 750.0 nM (AR mRNA [1]; [4]): 61% | percent inhibition of AR, 3000.0 nM (AR mRNA [1]; [4]): 67% | IC50 (AR mRNA [1]; [4]): 630 nM | % inhibition (AR mRNA [2]; [5]): 38%

583795 (antisense kT*kG*k[5mC]*dT*dG*dT*dT*dG*d[5mC]*dT*dG*dA*dA*kG*kG*kA) [compound 583795]
percent inhibition of AR, 46.9 nM (AR mRNA [1]; [6]): 37% | percent inhibition of AR, 187.5 nM (AR mRNA [1]; [6]): 61% | percent inhibition of AR, 750.0 nM (AR mRNA [1]; [6]): 83% | percent inhibition of AR, 3000.0 nM (AR mRNA [1]; [6]): 90% | IC50 (AR mRNA [1]; [6]): 90 nM | % inhibition (AR mRNA [2]; [5]): 63%

583584 (antisense k[5mC]*k[5mC]*kG*dA*d[5mC]*dT*dG*dA*dG*dG*d[5mC]*dA*dG*k[5mC]*kT*kG) [compound 583584]
percent inhibition of AR, 46.9 nM (AR mRNA [1]; [3]): 24% | percent inhibition of AR, 187.5 nM (AR mRNA [1]; [3]): 44% | percent inhibition of AR, 750.0 nM (AR mRNA [1]; [3]): 52% | percent inhibition of AR, 3000.0 nM (AR mRNA [1]; [3]): 73% | IC50 (AR mRNA [1]; [3]): 410 nM | % inhibition (AR mRNA [2]; 500 nM ASO, ~24 h, Table 16): 44%

549381 (kG*k[5mC]*k[5mC]*dG*d[5mC]*d[5mC]*dA*dG*dG*dG*dT*dA*d[5mC]*k[5mC]*kA*k[5mC]; antisense) [compound 549381]
percent inhibition of AR (AR mRNA [1]; 55.6 nM, ~16 h, Table 3): 14% | percent inhibition of AR (AR mRNA [1]; 166.7 nM, ~16 h, Table 3): 33% | percent inhibition of AR (AR mRNA [1]; 500.0 nM, ~16 h, Table 3): 71% | percent inhibition of AR (AR mRNA [1]; 1500.0 nM, ~16 h, Table 3): 91% | IC50 (AR mRNA [1]; ~16 h, Table 3): 261 nM | % inhibition (AR mRNA [2]; [7]): 89%

569223 (antisense eG*eT*kT*kG*kA*dT*dT*dT*dA*dA*dT*dG*dG*kT*kT*kG) [compound 569223]
percent inhibition of AR (AR mRNA [1]; 31.25 nM, ~16 h, Table 14): 21% | percent inhibition of AR (AR mRNA [1]; 62.5 nM, ~16 h, Table 14): 20% | percent inhibition of AR (AR mRNA [1]; 125.0 nM, ~16 h, Table 14): 30% | percent inhibition of AR (AR mRNA [1]; 500.0 nM, ~16 h, Table 14): 73% | percent inhibition of AR (AR mRNA [1]; 1000.0 nM, ~16 h, Table 14): 87% | IC50 (AR mRNA [1]; ~16 h, Table 14): 191 nM | % inhibition (AR mRNA [2]; 1,000 nM ASO, ~24 h, Table 13): 59%

549388 (kT*k[5mC]*k[5mC]*d[5mC]*dT*dT*d[5mC]*dA*dG*d[5mC]*dG*dG*d[5mC]*kT*k[5mC]*kT; antisense) [compound 549388]
percent inhibition of AR (AR mRNA [1]; 55.6 nM, ~16 h, Table 3): 15% | percent inhibition of AR (AR mRNA [1]; 166.7 nM, ~16 h, Table 3): 42% | percent inhibition of AR (AR mRNA [1]; 500.0 nM, ~16 h, Table 3): 36% | percent inhibition of AR (AR mRNA [1]; 1500.0 nM, ~16 h, Table 3): 86% | IC50 (AR mRNA [1]; ~16 h, Table 3): 428 nM | % inhibition (AR mRNA [2]; [7]): 88%

549358 (kA*kT*kG*dG*dT*dG*d[5mC]*dT*dG*dG*d[5mC]*d[5mC]*dT*k[5mC]*kG*k[5mC]; antisense) [compound 549358]
percent inhibition of AR (AR mRNA [1]; 55.6 nM, ~16 h, Table 3): 29% | percent inhibition of AR (AR mRNA [1]; 166.7 nM, ~16 h, Table 3): 63% | percent inhibition of AR (AR mRNA [1]; 500.0 nM, ~16 h, Table 3): 85% | percent inhibition of AR (AR mRNA [1]; 1500.0 nM, ~16 h, Table 3): 95% | IC50 (AR mRNA [1]; ~16 h, Table 3): 141 nM | % inhibition (AR mRNA [2]; [7]): 91%

583789 (antisense kT*kG*k[5mC]*dA*dT*dG*dG*dT*dG*d[5mC]*dT*dG*dG*k[5mC]*k[5mC]*kT) [compound 583789]
percent inhibition of AR, 46.9 nM (AR mRNA [1]; [6]): 30% | percent inhibition of AR, 187.5 nM (AR mRNA [1]; [6]): 49% | percent inhibition of AR, 750.0 nM (AR mRNA [1]; [6]): 71% | percent inhibition of AR, 3000.0 nM (AR mRNA [1]; [6]): 85% | IC50 (AR mRNA [1]; [6]): 190 nM | % inhibition (AR mRNA [2]; [5]): 39%
